From US20110196000A1, “Use of succinate dehydrogenase (SDH) inhibitors in the treatment of plant species from the family of the true grasses” (Bayer CropScience AG, priority 2010, published 2011)

Columns and labels:
Type in all cases: in vivo
[1] = tested on: infection-free wheat plants of the cultivar Passat; experiment: Glasshouse trial: yield components; details: for Ears/pot / Harvest Index / Kernels/ear / Straw / TKM (thousand-kernel mass) / Yield: glasshouse, sprays at BBCH 39 and 59
Wheat plants = experiment: Effect of single and double bixafen treatment on leaf area; details: for Area [rel.] of the flag leaf / Area [rel.] of the leaf F-1: untreated = 100
Experimental: Trial procedure: Wheat plants were treated at different development stages with bixafen once or twice (125 g/ha each time), and a measurement was made of the respective size of the flag leaf and of the leaf F-1 at the time BBCH 75. For the destructive measurement of the leaf area, the leaves were removed from the plant. The non-destructive measurement was carried out on the intact leaf of the plant.

wheat variety Ritmo = experiment: Plot trial: chlorophyll content of leaves (pigment extraction method of Ziegler and Ehle)
[2] = treated at BBCH 33 (125 g/ha), measured at BBCH 75, destructive
[3] = treated at BBCH 33 (125 g/ha), measured at BBCH 75, non-destructive
[4] = treated at BBCH 33 + 39 (125 g/ha each time), measured at BBCH 75, destructive
[5] = treated at BBCH 33 + 39 (125 g/ha each time), measured at BBCH 75, non-destructive
[6] = treated at BBCH 33 + 59 (125 g/ha each time), measured at BBCH 75, destructive
[7] = treated at BBCH 33 + 59 (125 g/ha each time), measured at BBCH 75, non-destructive
[8] = treated at BBCH 39 (125 g/ha), measured at BBCH 75, destructive
[9] = treated at BBCH 39 (125 g/ha), measured at BBCH 75, non-destructive
[10] = treated at BBCH 39 + 59 (125 g/ha each time), measured at BBCH 75, destructive
[11] = treated at BBCH 39 + 59 (125 g/ha each time), measured at BBCH 75, non-destructive
[12] = treated at BBCH 59 (125 g/ha), measured at BBCH 75, destructive
[13] = treated at BBCH 59 (125 g/ha), measured at BBCH 75, non-destructive
[14] = BBCH 75 (mature milk), leaf F-1
[15] = BBCH 75 (mature milk), leaf F-2
[16] = BBCH 85 (mature dough), leaf F-1
[17] = BBCH 85 (mature dough), leaf F-2

Cn1cc(C(=O)Nc2ccc(F)cc2-c2ccc(Cl)c(Cl)c2)c(C(F)F)n1 [Bixafen, N-(3′,4′-dichloro-5-fluoro-1,1′-biphenyl-2-yl)-3-(difluoromethyl)-1-methyl-1H-pyrazole-4-carboxamide]
yield components compared with the other comparison fungicides ([1]; glasshouse trial, statement in words): a higher yield, a higher number of kernel/ear, a higher thousand-kernel mass and a lower straw fraction than the other comparison fungicides | Ears/pot [1]: 40.0 | Harvest Index [1]: 29.8% | Kernels/ear [1]: 25.1 | Straw [1]: 88.5 g/pot | TKM (thousand-kernel mass) [1]: 37.5 g | Yield [1]: 37.5 g/pot | Area of the flag leaf (Wheat plants; [2]): 32.13 cm^2 | Area of the leaf F-1 (Wheat plants; [2]): 32.69 cm^2 | Length of the flag leaf (Wheat plants; [2]): 28.25 cm | Length of the leaf F-1 (Wheat plants; [2]): 30.58 cm | Width of the flag leaf (Wheat plants; [2]): 1.47 cm | Width of the leaf F-1 (Wheat plants; [2]): 1.35 cm | Area [rel.] of the flag leaf (Wheat plants; [2]): 115 rel. | Area [rel.] of the leaf F-1 (Wheat plants; [2]): 119 rel. | Area of the flag leaf (Wheat plants; [3]): 35.23 cm^2 | Length of the flag leaf (Wheat plants; [3]): 25.11 cm | Width of the flag leaf (Wheat plants; [3]): 1.66 cm | Area [rel.] of the flag leaf (Wheat plants; [3]): 109 rel. | Area of the flag leaf (Wheat plants; [4]): 29.38 cm^2 | Area of the leaf F-1 (Wheat plants; [4]): 28.42 cm^2 | Length of the flag leaf (Wheat plants; [4]): 24.49 cm | Length of the leaf F-1 (Wheat plants; [4]): 27.68 cm | Width of the flag leaf (Wheat plants; [4]): 1.40 cm | Width of the leaf F-1 (Wheat plants; [4]): 1.27 cm | Area [rel.] of the flag leaf (Wheat plants; [4]): 105 rel. | Area [rel.] of the leaf F-1 (Wheat plants; [4]): 103 rel. | Area of the flag leaf (Wheat plants; [5]): 35.37 cm^2 | Length of the flag leaf (Wheat plants; [5]): 24.49 cm | Width of the flag leaf (Wheat plants; [5]): 1.76 cm | Area [rel.] of the flag leaf (Wheat plants; [5]): 109 rel. | Area of the flag leaf (Wheat plants; [6]): 31.28 cm^2 | Area of the leaf F-1 (Wheat plants; [6]): 30.07 cm^2 | Length of the flag leaf (Wheat plants; [6]): 27.10 cm | Length of the leaf F-1 (Wheat plants; [6]): 29.77 cm | Width of the flag leaf (Wheat plants; [6]): 1.51 cm | Width of the leaf F-1 (Wheat plants; [6]): 1.30 cm | Area [rel.] of the flag leaf (Wheat plants; [6]): 112 rel. | Area [rel.] of the leaf F-1 (Wheat plants; [6]): 109 rel. | Area of the flag leaf (Wheat plants; [7]): 37.41 cm^2 | Length of the flag leaf (Wheat plants; [7]): 25.83 cm | Width of the flag leaf (Wheat plants; [7]): 1.73 cm | Area [rel.] of the flag leaf (Wheat plants; [7]): 115 rel. | Area of the flag leaf (Wheat plants; [8]): 29.04 cm^2 | Area of the leaf F-1 (Wheat plants; [8]): 28.37 cm^2 | Length of the flag leaf (Wheat plants; [8]): 25.81 cm | Length of the leaf F-1 (Wheat plants; [8]): 28.27 cm | Width of the flag leaf (Wheat plants; [8]): 1.40 cm | Width of the leaf F-1 (Wheat plants; [8]): 1.19 cm | Area [rel.] of the flag leaf (Wheat plants; [8]): 104 rel. | Area [rel.] of the leaf F-1 (Wheat plants; [8]): 103 rel. | Area of the flag leaf (Wheat plants; [9]): 34.86 cm^2 | Length of the flag leaf (Wheat plants; [9]): 24.21 cm | Width of the flag leaf (Wheat plants; [9]): 1.72 cm | Area [rel.] of the flag leaf (Wheat plants; [9]): 108 rel. | Area of the flag leaf (Wheat plants; [10]): 32.44 cm^2 | Area of the leaf F-1 (Wheat plants; [10]): 30.28 cm^2 | Length of the flag leaf (Wheat plants; [10]): 26.57 cm | Length of the leaf F-1 (Wheat plants; [10]): 29.38 cm | Width of the flag leaf (Wheat plants; [10]): 1.52 cm | Width of the leaf F-1 (Wheat plants; [10]): 1.20 cm | Area [rel.] of the flag leaf (Wheat plants; [10]): 116 rel. | Area [rel.] of the leaf F-1 (Wheat plants; [10]): 110 rel. | Area of the flag leaf (Wheat plants; [11]): 39.44 cm^2 | Length of the flag leaf (Wheat plants; [11]): 26.83 cm | Width of the flag leaf (Wheat plants; [11]): 1.77 cm | Area [rel.] of the flag leaf (Wheat plants; [11]): 122 rel. | Area of the flag leaf (Wheat plants; [12]): 32.37 cm^2 | Area of the leaf F-1 (Wheat plants; [12]): 30.55 cm^2 | Length of the flag leaf (Wheat plants; [12]): 26.58 cm | Length of the leaf F-1 (Wheat plants; [12]): 31.10 cm | Width of the flag leaf (Wheat plants; [12]): 1.47 cm | Width of the leaf F-1 (Wheat plants; [12]): 1.26 cm | Area [rel.] of the flag leaf (Wheat plants; [12]): 116 rel. | Area [rel.] of the leaf F-1 (Wheat plants; [12]): 111 rel. | Area of the flag leaf (Wheat plants; [13]): 37.91 cm^2 | Length of the flag leaf (Wheat plants; [13]): 23.78 cm | Width of the flag leaf (Wheat plants; [13]): 2.02 cm | Area [rel.] of the flag leaf (Wheat plants; [13]): 117 rel. | Chlorophyll content (wheat variety Ritmo; BBCH 75 (mature milk), leaf F): 1763 µg/g | Chlorophyll content (wheat variety Ritmo; [14]): 1693 µg/g | Chlorophyll content (wheat variety Ritmo; [15]): 1243 µg/g | Chlorophyll content (wheat variety Ritmo; BBCH 85 (mature dough), leaf F): 738 µg/g | Chlorophyll content (wheat variety Ritmo; [16]): 631 µg/g | Chlorophyll content (wheat variety Ritmo; [17]): 404 µg/g | chlorophyll content and breakdown of chlorophyll (wheat variety Ritmo; alone or in combination with other active fungicidal ingredients, statement in words): the chlorophyll content overall is higher and the breakdown of chlorophyll is slower

OC(Cc1ccccc1Cl)(Cn1nc[nH]c1=S)C1(Cl)CC1 (centres unmarked) [Prothioconazole]
Ears/pot [1]: 43.1 | Harvest Index [1]: 27.3% | Kernels/ear [1]: 22.2 | Straw [1]: 85.4 g/pot | TKM (thousand-kernel mass) [1]: 33.5 g | Yield [1]: 32.1 g/pot | Chlorophyll content (wheat variety Ritmo; BBCH 75 (mature milk), leaf F): 1740 µg/g | Chlorophyll content (wheat variety Ritmo; [14]): 1637 µg/g | Chlorophyll content (wheat variety Ritmo; [15]): 1207 µg/g | Chlorophyll content (wheat variety Ritmo; BBCH 85 (mature dough), leaf F): 211 µg/g | Chlorophyll content (wheat variety Ritmo; [16]): 163 µg/g | Chlorophyll content (wheat variety Ritmo; [17]): 116 µg/g
